From PubChem BioAssay (NCI) come the findings set out here.

Test systems include COLO 205 colon; A498 renal; 786-0 renal; SF-539 CNS; HOP-92 NSCLC; CCRF-CEM leukemia; RXF 393 renal; OVCAR-5 ovarian.
What all share (assay): growth of human tumour cells (NCI), 48 h

Several values for one entry are separate records, joined by “and”; a condition that tells them apart may be missing. Equal values may be shown once.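 Interpolation was linear, between the two tested concentrations surrounding the appropriate level; five concentrations were tested over 48 hours in 96-well plates. At the GI50, growth is halved. TGI is the concentration that stops growth completely.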

As to `Cc1ccc(N2C(=O)N(c3ccc(C)cc3)C3(SC=NN3C)C2=O)cc1` (configuration not stated), the TGI in the assay with COLO 205 colon, with A498 renal, with 786-0 renal, in the assay with SF-539 CNS, in the assay on HOP-92 NSCLC and in the assay on CCRF-CEM leukemia was greater than 100 µM in each case. In the assay on RXF 393 renal, this compound gave a TGI greater than 100 µM.
On to `N#Cc1c(-c2ccco2)cc(-c2ccc(N)cc2)[nH]c1=O`, for which the TGI in the assay on A498 renal, in the assay with OVCAR-5 ovarian, in the assay on 786-0 renal, in the assay on SF-539 CNS, in the assay with HOP-92 NSCLC and in the assay on CCRF-CEM leukemia was greater than 100 µM each time. The TGI in the assay with RXF 393 renal is greater than 100 µM.
Take `NCCN.O=C([O-])[O-].O=C([O-])[O-].[Co+3].[K+]`: the GI50 in the assay on COLO 205 colon was greater than 100 µM; in the assay on A498 renal, greater than 100 µM; with OVCAR-5 ovarian it was greater than 100 µM; with 786-0 renal, greater than 100 µM; in the assay with SF-539 CNS, greater than 100 µM; in the assay on HOP-92 NSCLC, 49.4 µM and 75.2 µM. In addition, the GI50 with CCRF-CEM leukemia is greater than 100 µM. The TGI in the assay on COLO 205 colon, in the assay on A498 renal, in the assay on OVCAR-5 ovarian, in the assay with 786-0 renal, with SF-539 CNS and with HOP-92 NSCLC was greater than 100 µM each time. Also, the TGI in the assay on CCRF-CEM leukemia is greater than 100 µM.
With `O=C1CC2CCN(C(=O)c3ccccc3)CC2CCN1` (configuration not stated), the TGI with COLO 205 colon, with A498 renal, in the assay on OVCAR-5 ovarian, in the assay on 786-0 renal, in the assay on SF-539 CNS and in the assay on HOP-92 NSCLC was greater than 100 µM each time. In addition, the TGI with CCRF-CEM leukemia and with RXF 393 renal was greater than 100 µM throughout.
As to `NC(CCc1ncc(C(=O)O)s1)C(=O)O` (configuration not stated), the TGI in the assay with COLO 205 colon, with A498 renal, in the assay on 786-0 renal, with SF-539 CNS, in the assay with HOP-92 NSCLC and in the assay with CCRF-CEM leukemia was greater than 100 µM in each case. The compound further displayed a TGI in the assay with RXF 393 renal greater than 100 µM.
Regarding `COC(=O)c1c[nH]cc1CCCCc1c[nH]cc1C(=O)OC`, the TGI in the assay with COLO 205 colon, with A498 renal, in the assay on OVCAR-5 ovarian, in the assay with 786-0 renal, with SF-539 CNS and with HOP-92 NSCLC was greater than 100 µM throughout. The TGI in the assay on CCRF-CEM leukemia and in the assay on RXF 393 renal was greater than 100 µM each time.
With `CC1COS(=O)O1` (configuration not stated), the TGI in the assay with COLO 205 colon, with A498 renal, in the assay on OVCAR-5 ovarian, with 786-0 renal, in the assay on SF-539 CNS and in the assay on HOP-92 NSCLC was greater than 100 µM each time. The TGI with CCRF-CEM leukemia was greater than 100 µM.
With `O=C1c2ccc3c4ccccc4n(-c4ccccc4)c3c2C(=O)N1c1ccc(Cl)cc1`, the TGI with COLO 205 colon was greater than 100 µM; in the assay on A498 renal, greater than 100 µM; in the assay with OVCAR-5 ovarian it was greater than 100 µM; with 786-0 renal it was greater than 100 µM; with SF-539 CNS it was greater than 100 µM; in the assay on HOP-92 NSCLC, 75 µM. The TGI in the assay on CCRF-CEM leukemia and in the assay with RXF 393 renal was greater than 100 µM in each case.
In the case of `CC(C)(C)OC(=O)N1C2CCCC23O[C@@H]1c1cc2c(cc1C3=O)OCO2` (some centres not stated), the TGI in the assay on OVCAR-5 ovarian is greater than 100 µM; in the assay with 786-0 renal it was greater than 100 µM; in the assay on SF-539 CNS, 55.4 µM; with HOP-92 NSCLC, greater than 100 µM; with CCRF-CEM leukemia it was greater than 100 µM; with RXF 393 renal, 83.2 µM.
For the compound `COc1cc2c(cc1OC)C1Cc3cc(OC)c(OC)cc3N1CC2` (configuration not stated), the TGI with COLO 205 colon was 52.1 µM; in the assay with A498 renal it was greater than 100 µM; with OVCAR-5 ovarian, greater than 100 µM; in the assay with 786-0 renal it was 37.9 µM; in the assay on HOP-92 NSCLC it was greater than 100 µM; in the assay on CCRF-CEM leukemia, greater than 100 µM.
On to `Nc1ccc(C2=N/C(=C\c3cccc(N)c3)C(=O)O2)cc1`, for which the TGI in the assay on COLO 205 colon, in the assay on OVCAR-5 ovarian, in the assay on 786-0 renal, with SF-539 CNS, in the assay on HOP-92 NSCLC and in the assay on CCRF-CEM leukemia was greater than 100 µM each time. In addition, the TGI in the assay with RXF 393 renal is greater than 100 µM.
On to `Cc1ccc(C)c(N2C(=O)C(=O)C(c3nc4ccccc4o3)/C(=N\NC(=O)c3ccccc3O)C2=O)c1` (configuration not stated), for which the TGI is 72.2 µM with COLO 205 colon; 76.8 µM in the assay with A498 renal; greater than 100 µM in the assay with OVCAR-5 ovarian; greater than 100 µM with 786-0 renal; 65.2 µM in the assay with SF-539 CNS; greater than 100 µM in the assay with HOP-92 NSCLC. Moreover, the TGI in the assay on CCRF-CEM leukemia worked out at 42.1 µM.
Turning to `COc1cc(/C=N\O[Si](C)(C)C(C)(C)C)ccc1O[Si](C)(C)C(C)(C)C`, the TGI in the assay on COLO 205 colon was greater than 100 µM; with OVCAR-5 ovarian, 68.7 µM; with 786-0 renal, greater than 100 µM; with SF-539 CNS it was greater than 100 µM; in the assay on HOP-92 NSCLC it was 60.1 µM; in the assay on CCRF-CEM leukemia it was greater than 100 µM. This compound displayed a TGI in the assay on RXF 393 renal greater than 100 µM.
`Cc1ccc2[c](c1)[Sn]([c]1ccccc1)([c]1ccccc1)[c]1cc(C)ccc1N2C`: the GI50 with COLO 205 colon was 23.1 µM; in the assay on OVCAR-5 ovarian it was 70.3 µM; in the assay with 786-0 renal it was 16.2 µM; in the assay with SF-539 CNS, greater than 100 µM; with HOP-92 NSCLC, 5.58 µM and 15.7 µM; in the assay with RXF 393 renal it was 11.3 µM. In addition, the TGI is 52.2 µM in the assay on COLO 205 colon; greater than 100 µM with OVCAR-5 ovarian; greater than 100 µM in the assay on 786-0 renal; greater than 100 µM in the assay on SF-539 CNS; greater than 100 µM in the assay on HOP-92 NSCLC; 31.8 µM with RXF 393 renal.
Turning to `CCOC(=O)C(C)(c1c(C)[nH]c2ccccc12)c1c(C)[nH]c2ccccc12`, the TGI came to 36.6 µM with A498 renal; 35.5 µM with OVCAR-5 ovarian; 43 µM in the assay with 786-0 renal; 39.1 µM with SF-539 CNS; 58 µM in the assay on CCRF-CEM leukemia; 25.8 µM in the assay on RXF 393 renal.
Regarding `Cc1ccc(C)c(N2C(=O)C(=O)C(c3nc4ccccc4o3)/C(=N/N)C2=O)c1` (configuration not stated), the TGI in the assay on COLO 205 colon, in the assay with A498 renal, in the assay with 786-0 renal, in the assay with SF-539 CNS, in the assay with HOP-92 NSCLC and in the assay on CCRF-CEM leukemia was greater than 100 µM in each case. Further, in the assay with RXF 393 renal, the TGI is greater than 100 µM.
With `C=CCC1(C)CCCCC1(O)CS(=O)c1ccccc1` (configuration not stated), the TGI in the assay on COLO 205 colon, in the assay with A498 renal, with OVCAR-5 ovarian, in the assay with 786-0 renal, with SF-539 CNS and in the assay with HOP-92 NSCLC was greater than 100 µM throughout. Moreover, the TGI with CCRF-CEM leukemia and in the assay with RXF 393 renal was greater than 100 µM throughout.
With `Cc1c(Cl)cccc1NC(=O)c1cccc([N+](=O)[O-])c1O`, the TGI is 27.3 µM in the assay with COLO 205 colon; 45.9 µM in the assay with A498 renal; greater than 93.8 µM in the assay with OVCAR-5 ovarian; greater than 78.1 µM in the assay on 786-0 renal; 40.6 µM with SF-539 CNS; 7.88 µM in the assay with HOP-92 NSCLC. Besides, the TGI with CCRF-CEM leukemia came out at 34.7 µM; with RXF 393 renal, 19.7 µM.
Take `C[Si](C)(C)CN1C(=O)c2ccccc2C1(O)c1ccccc1` (configuration not stated): the TGI in the assay with COLO 205 colon is greater than 100 µM; with A498 renal, greater than 100 µM; in the assay on OVCAR-5 ovarian it was greater than 100 µM; in the assay with 786-0 renal, greater than 100 µM; with SF-539 CNS it was greater than 100 µM; in the assay with HOP-92 NSCLC, 97.9 µM. Also, the TGI with CCRF-CEM leukemia and in the assay with RXF 393 renal was greater than 100 µM throughout.
With `CC12CCC(=O)N1c1cccnc1N2` (configuration not stated), the TGI in the assay on COLO 205 colon, in the assay on A498 renal, in the assay on OVCAR-5 ovarian, in the assay on 786-0 renal, with SF-539 CNS and in the assay on HOP-92 NSCLC was greater than 100 µM throughout. Moreover, the TGI in the assay with CCRF-CEM leukemia and in the assay with RXF 393 renal was greater than 100 µM in each case.
In the case of `C[P+](C)(C)c1ccccc1`, the TGI in the assay with COLO 205 colon, in the assay on OVCAR-5 ovarian, in the assay with 786-0 renal, in the assay on SF-539 CNS, in the assay on HOP-92 NSCLC and in the assay with CCRF-CEM leukemia was greater than 100 µM in each case. The compound further yielded a TGI in the assay with RXF 393 renal greater than 100 µM.
For `NC(=S)N/N=C1\CCCC\C1=C/c1ccccc1`, the TGI is greater than 100 µM in the assay on COLO 205 colon; greater than 100 µM in the assay with A498 renal; 70.4 µM with OVCAR-5 ovarian; greater than 100 µM in the assay with 786-0 renal; greater than 100 µM in the assay with SF-539 CNS; greater than 100 µM with HOP-92 NSCLC. For the same compound, the TGI in the assay on CCRF-CEM leukemia and with RXF 393 renal was greater than 100 µM each time.
For the compound `CCOC(=O)C1=C(Nc2ccc(Br)cc2)OCC1=O`, the TGI with COLO 205 colon, in the assay with A498 renal, with 786-0 renal, with SF-539 CNS, with HOP-92 NSCLC and in the assay on CCRF-CEM leukemia was greater than 100 µM throughout. This compound registered a TGI in the assay with RXF 393 renal greater than 100 µM.
`O=C1C2[C@@H](C(=O)N1c1ccc(Br)cc1)C13C(=CC2([N+](=O)[O-])[C@@H]2C(=O)N(c4ccc(Br)cc4)C(=O)[C@@H]21)c1ccccc1N3c1ccccc1` (some centres not stated): the TGI in the assay with COLO 205 colon is greater than 100 µM; with OVCAR-5 ovarian, greater than 100 µM; in the assay on 786-0 renal, 31.1 µM; in the assay on SF-539 CNS it was greater than 100 µM; in the assay on HOP-92 NSCLC, greater than 100 µM; in the assay with CCRF-CEM leukemia, greater than 100 µM. The compound also registered a TGI in the assay on RXF 393 renal greater than 100 µM.
As to `CCOc1ccc(N=Cc2c3ccccc3nc3ccccc23)cc1`, the TGI is greater than 100 µM in the assay on COLO 205 colon; greater than 100 µM in the assay with A498 renal; greater than 100 µM in the assay on 786-0 renal; greater than 100 µM in the assay with SF-539 CNS; greater than 100 µM in the assay on HOP-92 NSCLC; 24 µM with CCRF-CEM leukemia. The same compound came in with a TGI with RXF 393 renal greater than 100 µM.
